Laboratory results from patent publication US20250368678A1, “19-NOR-C3,3-DISUBSTITUTED C21-AZACYCLO-S[…] AND METHOD FOR USING SAME” (SHANDONG LUYE PHARMACEUTICAL CO., LTD., priority 2022, published 2025).

Tests used:
Assay type in all cases: in vivo
SD rats [1] = assay: Loss of righting reflex in SD rats, intragastric administration; conditions: for rate of loss of righting reflex: within 4 h
Text: To determine the threshold for the loss of righting reflex in SD rats after intragastric administration of compound 41 in order to evaluate the sedative effect and therapeutic safety window of compound 41.
Male SD rats weighing 180-200 g, as experimental animals, were acclimatized for 7 days after arriving at the animal facility and were randomly divided into groups based on weight one day before experimentation. The rats were fasted overnight before experimentation but had access to water. Doses of compound 41 were designed in a 0.8-fold gradient, and the doses were set at 39 mg/kg, 31.25 mg/kg, 25 mg/kg, 20 mg/kg, and 16 mg/kg, with 10 rats in each group. Observations were made on the loss of righting reflex within 4 h of intragastrically administering the compound to the rats.

SD rats [2] = assay: Loss of righting reflex in SD rats, intraperitoneal injection; conditions: for rate of loss of righting reflex: within 4 h
Text: To determine the threshold for the loss of righting reflex in SD rats after injection of compound 41 in order to evaluate the sedative effect and therapeutic safety window of the compound.
Male SD rats weighing 180-200 g, as test animals, were acclimatized for 7 days after arriving at the animal facility and were randomly divided into groups based on weight one day before testing. The rats were fasted for half a day before testing but had access to water. Doses of compound 41 were designed in a 0.8-fold gradient, and the doses were set at 23.5 mg/kg, 18.8 mg/kg, 15 mg/kg, 12 mg/kg, and 9.6 mg/kg. Observations were made on the loss of righting reflex within 4 h of intraperitoneally injecting compound 41 into the rats.

SD rats [3] = assay: Anticonvulsant effect, pentylenetetrazol (PTZ)-induced epileptic convulsion SD rat model
Protocol: To establish an epileptic convulsion SD rat animal model by intraperitoneally injecting 50 mg/kg of pentylenetetrazol (PTZ) into SD rats, and evaluate the anticonvulsant effect of compound 41.
Male SD rats weighing 300±10 g, as test animals, were acclimatized for 7 days after arriving at the animal facility and were randomly divided into groups based on weight one day before administration. The rats were fasted for half a day before testing but had access to water. During the test, compound 41 was orally administered to the animals at 3.5 mg/kg in advance. Two hours after the oral administration, a PTZ solution was intraperitoneally injected at 50 mg/kg. Observations were made on the rats' epileptic convulsion behavior within 1 h of performing PTZ induction. The latency period of clonic convulsion and the latency period of tonic-clonic behavior were measured.
Behavioral raw data are finally expressed as mean±standard error (Mean S.E.M.) and statistically analyzed using One-way ANOVA Dunnett post hoc. P<0.05 indicates the presence of a significant difference, P<0.01 indicates the presence of a very significant difference, and P<0.001 indicates the presence of an extremely significant difference.

[4] = Pharmacokinetic study in SD rats (plasma and brain)
Protocol: Male SD rats weighing about 250 g were randomly divided into groups of 3.
The intravenous dose was 6.1 mol/kg, and the intragastric dose was 24.4 μmol/kg. Animals were fasted for 12 h before administration, with free access to water, and were fed together 3 h post-administration. Blood samples of about 0.3 mL were collected at 5 min (intravenous), 15 min, 30 min, 1 h, 2 h, 3 h, 4 h, 6 h, 8 h, 12 h, and 24 h post-administration into heparinized EP tubes and centrifuged at 13,500 rpm for 10 min to separate the plasma. Rat brain tissue samples were collected after cardiac perfusion at 30 min, 2 h, and 6 h. After pretreatment, the samples were analyzed by LC-MS/MS to determine the concentration of the test compound in the plasma and brain, and pharmacokinetic parameters were calculated.

[5] = 3.5 mg/kg oral 2 h before PTZ 50 mg/kg i.p., observed 1 h, P<0.001 vs solvent control
[6] = male, rat, 6.1 umol/kg, IV 6.1 μmol/kg, plasma
[7] = male, rat, plasma, 6.1 umol/kg, IV 6.1 μmol/kg
[8] = male, rat, plasma, po, 24.4 umol/kg, IG 24.4 μmol/kg
[9] = male, rat, po, 24.4 umol/kg, IG 24.4 μmol/kg, plasma

In the case of C[C@@]1(O)CC[C@H]2[C@H](CC[C@@H]3[C@@H]2CC[C@]2(C)[C@@H](C(=O)Cn4cnn(-c5cc(F)nc(F)c5)c4=O)CC[C@@H]32)C1 [Compound 41], the “rate of loss of righting reflex” value (SD rats [1]; 16 mg/kg intragastric, SD rats) is reported as 0%, the “rate of loss of righting reflex” value (SD rats [1]; 20 mg/kg intragastric, SD rats) is reported as 0% and the “rate of loss of righting reflex” value (SD rats [1]; 25 mg/kg intragastric, SD rats) is reported as 50%. The “rate of loss of righting reflex” value (SD rats [1]; 31.25 mg/kg intragastric, SD rats) was 90%, the “rate of loss of righting reflex” value (SD rats [1]; 39 mg/kg intragastric, SD rats) was 100% and the “threshold for loss of righting reflex relative to effective dose for the antiepileptic convulsion effect” value (SD rats [1]; intragastric, 20 mg/kg vs 3.5 mg/kg, rats) was 5.7 times. The “therapeutic safety window (in words)” value (SD rats [1]; intragastric, SD rats) was “relatively wide”, the “threshold dose for the loss of righting reflex” value (SD rats [1]; intragastrically administered, SD rats) was 20 mg/kg and the “rate of loss of righting reflex” value (SD rats [2]; 9.6 mg/kg intraperitoneal) was 0. For the same molecule, the “rate of loss of righting reflex” value (SD rats [2]; 12 mg/kg intraperitoneal) was 0, the “rate of loss of righting reflex” value (SD rats [2]; 15 mg/kg intraperitoneal) was 30% and the “rate of loss of righting reflex” value (SD rats [2]; 18.8 mg/kg intraperitoneal) was 50%. For the same molecule, the “rate of loss of righting reflex” value (SD rats [2]; 23.5 mg/kg intraperitoneal) was 80%, the “therapeutic safety window (in words)” value (SD rats [2]; intraperitoneal) was “relatively wide” and the “threshold dose for the loss of righting reflex” value (SD rats [2]; intraperitoneally injected) was 12 mg/kg. The “latency period of clonic convulsion behavior” value (SD rats [3]; [5]) was 2764.6 ± 1330.9 s, the “latency period of tonic-clonic behavior” value (SD rats [3]; [5]) was 3600 ± 0 s and the “effective dose for the antiepileptic convulsion effect” value (SD rats [3]; oral, PTZ model) was 3.5 mg/kg. For the same molecule, the “brain penetration capability (in words)” value ([4]; IG 24.4 μmol/kg) was “strong”, the Brain concentration ([4]; IG 24.4 μmol/kg, 30 min) was 2565 ± 452 nmol/kg and the Brain concentration ([4]; IG 24.4 μmol/kg, 2 h) was 4533 ± 720 nmol/kg. For the same molecule, the Brain concentration ([4]; IG 24.4 μmol/kg, 6 h) was 2692 ± 259 nmol/kg, the AUC(0-inf) [4, 6] was 10.1 ± 2.38 µM·h and the AUC(0-t) [4, 6] was 9.71 ± 2.26 µM·h. The C0 [4, 6] was 2110 ± 537 nM, the Kp at 30 min ([4]; male, rat, brain/plasma, oral, IG 24.4 μmol/kg, 30 min, read-out: Brain-to-blood ratio) was 0.8 and the Kp at 2 h ([4]; male, rat, brain/plasma, oral, IG 24.4 μmol/kg, 2 h, read-out: Brain-to-blood ratio) was 1.2. For the same molecule, the Kp at 6 h ([4]; male, rat, brain/plasma, oral, IG 24.4 μmol/kg, 6 h, read-out: Brain-to-blood ratio) was 1.8, the MRT last [4, 7] was 6.3 ± 0.83 h and the half-life [4, 7] was 310 ± 33 min. The bioavailability ([4]; male, rat, plasma, oral, IG 24.4 μmol/kg vs IV 6.1 μmol/kg, read-out: F (absolute bioavailability)) was 84%, the concentration at 30 min ([4]; male, rat, plasma, oral, IG 24.4 μmol/kg, 30 min) was 3.2 ± 1.16 µM and the concentration at 2 h ([4]; male, rat, plasma, oral, IG 24.4 μmol/kg, 2 h) was 3.81 ± 0.67 µM. The concentration at 6 h ([4]; male, rat, plasma, oral, IG 24.4 μmol/kg, 6 h) was 1480 ± 261 nM, the MRT last [4, 8] was 7.61 ± 0.6 h and the Tmax [4, 8] was 1.67 ± 0.58 h. For the same molecule, the half-life [4, 8] was 367 ± 86.4 min, the AUC(0-inf) [4, 9] was 35.1 ± 7.03 µM·h and the AUC(0-t) [4, 9] was 32.5 ± 5.2 µM·h. For the same molecule, the Cmax [4, 9] was 3.28 ± 0.324 µM.
